Experimental data reported in a compilation of properties of binary mixtures (doi:10.1016/j.jct.2022.106789).

Experiment: xn = mol fraction of the nth substance listed
Conditions: 100 kPa

CCCCCC[N+](CC)(CC)CC.O=S(=O)([N-]S(=O)(=O)C(F)(F)F)C(F)(F)F + CC(C)O
Conditions | speed of sound, 293.15 K [m/s] | speed of sound, 298.15 K [m/s] | speed of sound, 303.15 K [m/s] | speed of sound, 308.15 K [m/s] | speed of sound, 313.15 K [m/s] | viscosity, 293.15 K [mPa·s] | viscosity, 298.15 K [mPa·s] | viscosity, 303.15 K [mPa·s] | viscosity, 308.15 K [mPa·s] | viscosity, 313.15 K [mPa·s]
x2 = 0 | 1295.3 | 1282.7 | 1270.4 | 1258.3 | 1246.7 | 241 | 187 | 138 | 105 | 80.7
x2 = 0.096 | – | 1277.1 | 1264.8 | 1252.7 | – | – | 136 | 109 | 90 | –
x2 = 0.2045 | 1282.6 | – | 1257.8 | 1246 | 1233.9 | 108 | – | 83.1 | 68.1 | 55.3
x2 = 0.3101 | 1273.6 | – | – | 1236.2 | 1224 | 74.1 | – | – | 49.3 | 41.4
x2 = 0.4056 | 1264 | 1250.9 | 1237.9 | – | 1213.3 | 55.3 | 50.3 | 44.3 | – | 30
x2 = 0.4987 | 1253.3 | – | 1226.8 | – | 1201.7 | 42.1 | – | 31.8 | – | 21.9
x2 = 0.5916 | 1240.8 | 1227.6 | 1214.5 | – | – | 30.7 | 25.3 | 20.9 | – | –
x2 = 0.7088 | 1220.1 | 1206.5 | 1192.8 | 1179.4 | 1166 | 17.9 | 14.4 | 12.1 | 10.4 | 9.33
x2 = 0.8015 | 1198 | 1184 | 1170.3 | – | 1142.5 | 11.2 | 8.83 | 7.01 | – | 4.94
x2 = 0.9193 | 1167 | 1151.8 | 1136.7 | – | 1106.5 | 5.24 | 4.36 | 3.67 | – | 2.38
x2 = 0.9503 | 1161 | – | – | – | – | – | – | – | – | –

CCCCCC[n+]1ccn(C)c1.O=S(=O)([O-])C(F)(F)F + CC(C)O
Conditions | speed of sound, 293.15 K [m/s] | speed of sound, 298.15 K [m/s] | speed of sound, 303.15 K [m/s] | speed of sound, 308.15 K [m/s] | speed of sound, 313.15 K [m/s] | viscosity, 293.15 K [mPa·s] | viscosity, 298.15 K [mPa·s] | viscosity, 303.15 K [mPa·s] | viscosity, 308.15 K [mPa·s] | viscosity, 313.15 K [mPa·s]
x2 = 0 | 1376.7 | 1364.8 | 1353.2 | 1342.1 | 1330.9 | 195 | 151 | 116 | 91.1 | 74
x2 = 0.1282 | 1366.5 | – | 1343 | 1331.5 | 1319.9 | 129 | – | 80 | 61.9 | 51.6
x2 = 0.2454 | 1353 | – | 1329.3 | 1316.1 | 1305.8 | 87.1 | – | 57.5 | 44.6 | 37.2
x2 = 0.3506 | 1338.3 | 1326 | – | 1301 | 1290.9 | 60 | 48.3 | – | 31.8 | 27
x2 = 0.469 | 1319.3 | – | 1294 | 1281.8 | 1270.2 | 37.8 | – | 27.2 | 21 | 18
x2 = 0.5728 | 1299.1 | 1286 | 1273.8 | 1260.3 | 1247.8 | 24.5 | 20.4 | 17.1 | 14.2 | 11.9
x2 = 0.6564 | 1280 | 1266.1 | 1253.7 | 1240.2 | 1227.4 | 16.1 | 13.6 | 11.3 | 9.6 | 8.4
x2 = 0.7574 | 1251.3 | 1237.2 | 1223.1 | 1209.3 | 1195.7 | 9.63 | 8.06 | 6.67 | 5.85 | 5.11
x2 = 0.8422 | 1221.4 | 1207.1 | 1192.8 | 1178.4 | 1163.3 | 5.86 | 4.82 | 4.21 | 3.59 | 3.13
x2 = 0.9231 | – | 1175.5 | 1159.6 | 1142.7 | – | – | 3.15 | 2.68 | 2.34 | –

CC(C)O + CCCCCC[N+](CC)(CC)CC.O=S(=O)([N-]S(=O)(=O)C(F)(F)F)C(F)(F)F
x1 = 1
Conditions | speed of sound [m/s] | viscosity [mPa·s]
293.15 K | 1155.7 | 2.42
313.15 K | 1085.8 | 1.34

CC(C)O + CCCCCC[n+]1ccn(C)c1.O=S(=O)([O-])C(F)(F)F
x1 = 1
Conditions | speed of sound [m/s] | viscosity [mPa·s]
293.15 K | 1155.7 | 2.42
303.15 K | 1120.8 | 1.73
313.15 K | 1085.8 | 1.34
